# Experimental data taken from ChEMBL document CHEMBL1140084, “Discovery and evaluation of 4-(2-(4-chloro-1H-pyrazol-1-yl)ethylamino)-3-(6-(1-(3-fluoropropyl)piperidin-4-yl)-4-methyl-1H-benzo[d]imidazol-2-yl)pyridin-2(1H)-one (BMS-695735), an orally efficacious inhibitor of insulin-like growth factor-1 receptor kinase with broad spectrum in vivo antitumor …” (J Med Chem, 2008).
# How the values were obtained:
# [1] = Antiproliferative activity against transgenic mouse SAL cells overexpressing human IGF1R assessed as [3H]thymidine incorporation after 72 hrs
# Cytochrome P450 3A4 = Cytochrome P450 3A4 (Homo sapiens, UniProt P08684); test: Inhibition of human recombinant CYP3A4 in human liver microsomes using BFC as a substrate
# Sequence of Cytochrome P450 3A4 (P08684 whole entry): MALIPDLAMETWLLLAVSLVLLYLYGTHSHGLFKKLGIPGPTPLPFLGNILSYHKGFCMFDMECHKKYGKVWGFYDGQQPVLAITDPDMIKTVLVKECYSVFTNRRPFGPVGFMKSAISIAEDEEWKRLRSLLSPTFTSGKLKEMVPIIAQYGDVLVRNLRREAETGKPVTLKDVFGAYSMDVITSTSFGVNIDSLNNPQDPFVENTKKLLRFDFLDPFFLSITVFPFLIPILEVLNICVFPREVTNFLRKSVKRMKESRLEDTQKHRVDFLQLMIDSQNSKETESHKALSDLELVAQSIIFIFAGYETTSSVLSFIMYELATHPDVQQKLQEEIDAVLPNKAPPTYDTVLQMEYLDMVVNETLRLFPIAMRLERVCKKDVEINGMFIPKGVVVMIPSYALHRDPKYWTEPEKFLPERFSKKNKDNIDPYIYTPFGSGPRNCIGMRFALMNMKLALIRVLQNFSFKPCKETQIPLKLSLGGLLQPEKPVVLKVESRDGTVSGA
# [2] = biological target: T1, Nuclear receptor subfamily 1 group I member 2 (Homo sapiens, UniProt O75469); test: Induction of PXR transactivation
# T1 sequence (O75469 whole entry): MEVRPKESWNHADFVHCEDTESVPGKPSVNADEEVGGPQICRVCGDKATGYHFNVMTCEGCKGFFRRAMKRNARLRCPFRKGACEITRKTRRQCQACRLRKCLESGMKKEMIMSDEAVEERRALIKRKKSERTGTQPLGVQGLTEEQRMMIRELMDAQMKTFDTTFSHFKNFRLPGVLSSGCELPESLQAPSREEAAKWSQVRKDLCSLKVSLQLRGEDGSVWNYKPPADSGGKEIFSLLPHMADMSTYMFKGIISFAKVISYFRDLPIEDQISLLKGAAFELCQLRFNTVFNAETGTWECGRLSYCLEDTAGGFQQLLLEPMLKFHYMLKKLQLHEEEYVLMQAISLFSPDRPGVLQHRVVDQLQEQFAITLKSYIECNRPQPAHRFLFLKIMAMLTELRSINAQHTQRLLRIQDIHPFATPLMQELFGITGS
# [3] = AUC in mouse at 20 mg/kg after 4 hrs; assay type: ADME, organism-based; parameters: time < 4 hr, dose 20 mg/kg; conditions: plasma
# Hepatocyte = test: Increase in CYP3A4 mRNA expression level in human hepatocytes; assay type: functional, cell-based
# [4] = Protein binding in mouse plasma at 10 uM by equilibrium dialysis; assay type: ADME, cell-free; conditions: read-out: PPB (converted)
# [5] = biological target: PXR (nuclear receptor subfamily 1 group I member 2) (Homo sapiens, UniProt O75469); test: Induction of PXR transactivation at 10 uM relative to rifampicin; conditions: read-out: Activity
# [6] = Apparent permeability across human CaCo2 cells; assay type: ADME, cell-based; conditions: Caco-2
# [7] = Protein binding in human plasma at 10 uM; assay type: ADME, cell-free; conditions: read-out: PPB
IC50 (Cytochrome P450 3A4) [µM],EC20 [2] [µM],AUC at 4 h [3] [µM·h],SMILES,IC50 [1] [µM],Activity (Hepatocyte),fraction unbound at 10 µM [4],activity at 10 µM [5] [%],Papp [6] [×10⁻⁶ cm/s],fraction unbound at 10 µM [7]
11,> 50,–,COCCN1CCC(c2cc(C)c3nc(-c4c(NC[C@@H](O)c5cccc(Cl)c5)cc[nH]c4=O)[nH]c3c2)CC1,0.217,–,–,–,–,–
–,> 50,–,Cc1cc(C2CCN(CCCF)CC2)cc2[nH]c(-c3c(NC[C@@H](O)c4cccc(Cl)c4)cc[nH]c3=O)nc12,0.076,–,–,–,–,–
10,> 50,0.28,COc1ccc([C@H](O)CNc2cc[nH]c(=O)c2-c2nc3c(C)cc(C4CCN(CCCF)CC4)cc3[nH]2)cc1Cl,0.04,–,–,–,–,–
14,> 50,1.2,Cc1cc(C2CCN(C)CC2)cc2[nH]c(-c3c(NC[C@@H](O)c4cccc(Cl)c4)cc[nH]c3=O)nc12,0.085,–,–,–,–,–

SMILES,IC50 (Cytochrome P450 3A4) [µM],EC20 [2] [µM],AUC at 4 h [3] [µM·h],IC50 [1] [µM],Activity (Hepatocyte),fraction unbound at 10 µM [4],activity at 10 µM [5] [%],Papp [6] [×10⁻⁶ cm/s],fraction unbound at 10 µM [7]
Cc1cc(N2CCOCC2)cc2[nH]c(-c3c(NC[C@@H](O)c4cccc(Cl)c4)cc[nH]c3=O)nc12,–,1.1,50,0.11,Dose-dependent effect,< 0.001,125,1.8,< 0.002
